Target: T1, Hsp90
T1 construct: gene HSP82; C-terminus of Hsp90 (C-Hsp90, 629–732, 15 kDa), His-tagged
Assay: intrinsic fluorescence quenching titration with purified Hsp90 domains
Format: binding
Excerpt: intrinsic fluorescence quenching titration with purified Hsp90 domains on Hsp90 | Dissociation constant (Kd) values of C212 with different Hsp90 domains

Q: With `O=C(/C=C/c1cccnc1)C(Cc1ccccc1Cl)C(=O)/C=C/c1cccnc1` [C212, (1E,6E)-4-(2-Chlorinebenzyl)-1,7-bis(3-pyridine)-1,6-heptadiene-3,5-dione] as the compound, how does the Kd read?
A: 15.3 ± 1.2 µM
